In patent US20250064941A1, “SIGLEC LIGANDS, CONJUGATES, AND METHODS OF USE THEREOF” (Osprey Biopharmaceuticals, Inc., priority 2023, published 2025):

Tests used:
[1] = biological target: T1, mouse Siglec-2-Fc-Avi (CD22) (Mus musculus, UniProt P35329); experiment: SPR binding affinity to mouse CD22; settings: steady-state analysis
T1 construct: made in house
T1 sequence (P35329 22-708 limits assumed): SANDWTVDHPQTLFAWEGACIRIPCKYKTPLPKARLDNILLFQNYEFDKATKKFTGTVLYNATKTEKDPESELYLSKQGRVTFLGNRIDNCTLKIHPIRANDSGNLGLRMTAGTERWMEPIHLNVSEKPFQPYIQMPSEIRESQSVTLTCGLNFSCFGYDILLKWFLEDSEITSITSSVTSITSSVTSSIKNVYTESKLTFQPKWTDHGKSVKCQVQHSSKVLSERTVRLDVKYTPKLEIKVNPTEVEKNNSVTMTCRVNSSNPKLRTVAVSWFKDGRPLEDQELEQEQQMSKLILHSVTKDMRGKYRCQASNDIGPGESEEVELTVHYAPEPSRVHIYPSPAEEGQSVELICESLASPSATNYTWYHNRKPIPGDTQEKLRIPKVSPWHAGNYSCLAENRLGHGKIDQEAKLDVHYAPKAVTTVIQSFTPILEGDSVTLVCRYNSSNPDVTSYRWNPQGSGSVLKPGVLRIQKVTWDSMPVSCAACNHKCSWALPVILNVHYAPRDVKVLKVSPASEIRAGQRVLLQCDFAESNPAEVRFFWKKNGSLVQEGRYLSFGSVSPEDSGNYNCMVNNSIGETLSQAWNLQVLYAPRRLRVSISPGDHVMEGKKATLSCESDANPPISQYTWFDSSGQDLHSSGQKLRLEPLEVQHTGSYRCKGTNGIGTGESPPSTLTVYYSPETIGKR
How it was run: (§1)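 Native sialic acid residues are removed from the receptor enzymatically (4 hours at 37° C.) prior to streptavidin capture of the biotinylated protein. Ligand compounds then flow over in HEPES-buffered saline, pH 7.5, containing 0.05% Tween-20 and 1% DMSO, and binding is evaluated at steady state.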

[2] = biological target: T2, human Siglec-2/CD22 protein (Homo sapiens, UniProt P20273); experiment: SPR binding affinity to human CD22; settings: steady-state analysis
T2 construct: purchased Acro Biosystems SI2-H82E3
T2 sequence (P20273 20-847): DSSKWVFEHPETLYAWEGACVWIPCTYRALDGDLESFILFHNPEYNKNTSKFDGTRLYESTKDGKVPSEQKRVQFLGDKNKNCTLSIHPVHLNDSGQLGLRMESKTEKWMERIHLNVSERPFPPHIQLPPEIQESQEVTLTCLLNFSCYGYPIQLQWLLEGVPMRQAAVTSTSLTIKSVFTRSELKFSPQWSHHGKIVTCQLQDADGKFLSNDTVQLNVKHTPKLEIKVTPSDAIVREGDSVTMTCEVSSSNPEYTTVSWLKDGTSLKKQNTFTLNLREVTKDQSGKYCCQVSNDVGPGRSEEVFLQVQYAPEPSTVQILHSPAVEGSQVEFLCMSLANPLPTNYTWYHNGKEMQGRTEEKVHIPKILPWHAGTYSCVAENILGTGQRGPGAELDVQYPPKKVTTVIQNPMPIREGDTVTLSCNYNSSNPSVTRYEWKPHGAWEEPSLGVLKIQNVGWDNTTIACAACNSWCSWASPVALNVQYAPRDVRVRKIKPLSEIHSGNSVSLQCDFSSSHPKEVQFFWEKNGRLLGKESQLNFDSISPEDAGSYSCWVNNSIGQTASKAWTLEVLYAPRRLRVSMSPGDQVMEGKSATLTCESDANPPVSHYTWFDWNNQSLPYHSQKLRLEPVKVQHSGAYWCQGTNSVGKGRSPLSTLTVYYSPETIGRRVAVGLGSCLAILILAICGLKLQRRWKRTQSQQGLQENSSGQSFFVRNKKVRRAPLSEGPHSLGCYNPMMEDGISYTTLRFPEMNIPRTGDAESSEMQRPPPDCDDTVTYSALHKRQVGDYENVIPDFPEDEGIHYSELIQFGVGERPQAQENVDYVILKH
How it was run: as §1

cynomolgus Siglec-2/CD22 = cynomolgus Siglec-2/CD22 (Macaca fascicularis, UniProt A0A2K5WCZ6); experiment: biochemical; type: binding; settings: SPR, steady-state analysis; read-out: Affinity cyno CD22
Chain of cynomolgus Siglec-2/CD22 (A0A2K5WCZ6 entry or part of it): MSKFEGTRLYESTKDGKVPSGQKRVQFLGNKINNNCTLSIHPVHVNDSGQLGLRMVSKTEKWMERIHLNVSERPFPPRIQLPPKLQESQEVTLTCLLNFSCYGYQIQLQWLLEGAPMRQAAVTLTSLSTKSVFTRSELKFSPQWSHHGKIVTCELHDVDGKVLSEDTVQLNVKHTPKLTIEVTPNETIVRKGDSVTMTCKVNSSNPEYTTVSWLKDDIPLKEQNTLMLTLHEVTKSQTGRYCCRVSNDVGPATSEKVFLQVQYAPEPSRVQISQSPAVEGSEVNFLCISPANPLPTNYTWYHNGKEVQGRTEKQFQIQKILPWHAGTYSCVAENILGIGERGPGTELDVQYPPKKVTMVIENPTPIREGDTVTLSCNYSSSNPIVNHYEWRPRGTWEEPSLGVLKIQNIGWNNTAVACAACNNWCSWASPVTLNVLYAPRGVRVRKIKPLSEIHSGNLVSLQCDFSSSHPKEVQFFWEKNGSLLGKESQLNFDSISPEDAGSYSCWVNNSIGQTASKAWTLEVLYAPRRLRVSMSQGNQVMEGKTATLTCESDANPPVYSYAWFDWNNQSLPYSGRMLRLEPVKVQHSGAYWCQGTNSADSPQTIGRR
How it was run: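 Compound binding measured by steady-state SPR analysis, 120 s dissociation, in HEPES-NaCl-Tween buffer pH 7.5 containing 1% DMSO, DMSO solvent-corrected. Surface: cyno CD22, sialic acids first stripped by SialoExo for 4 h at 37° C., then amine-coupled onto CM5.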

Kd [1] [µM] | Kd [2] [µM] | Kd (cynomolgus Siglec-2/CD22) [µM] | SMILES
1 to 10 | < 1 | < 1 | C#CCOCCCCCCO[C@]1(C(=O)O)C[C@H](O)[C@@H](NC(=O)CO)[C@H]([C@H](O)[C@H](O)CNC(=O)Cc2ccc(OC(F)(F)F)cc2)O1 [Compound 156, (2R,4S,5R,6R)-6-((1R,2R)-1,2-dihydroxy-3-(2-(4-(trifluoromethoxy)phenyl)acetamido)propyl)-4-hydroxy-5-(2-hydroxyacetamido)-2-((6-(prop-2-yn-1-yloxy)hexyl)oxy)tetrahydro-2H-pyran-2-carboxylic acid]
1 to 10 | 1 to 10 | 1 to 10 | C#CCCOc1ccc(CO[C@]2(C(=O)O)C[C@H](O)[C@@H](NC(=O)CO)[C@H]([C@H](O)[C@H](O)CNC(=O)C3(c4ccc(C(F)(F)F)cc4)CCOCC3)O2)cc1 [Compound 170, (2R,4S,5R,6R)-2-((4-(but-3-yn-1-yloxy)benzyl)oxy)-6-((1R,2R)-1,2-dihydroxy-3-(4-(4-(trifluoromethyl)phenyl)tetrahydro-2H-pyran-4-carboxamido)propyl)-4-hydroxy-5-(2-hydroxyacetamido)tetrahydro-2H-pyran-2-carboxylic acid]
1 to 10 | 1 to 10 | < 1 | CC(=O)NCCOCCOCCOCCOCCNC(=O)CCCCCO[C@]1(C(=O)O)C[C@H](O)[C@@H](NC(=O)CO)[C@H]([C@H](O)[C@H](O)CNC(=O)Cc2ccc(Cl)cc2)O1 [Compound 228, (2R,4S,5R,6R)-6-((1R,2R)-3-(2-(4-chlorophenyl)acetamido)-1,2-dihydroxypropyl)-2-((2,19-dioxo-6,9,12,15-tetraoxa-3,18-diazatetracosan-24-yl)oxy)-4-hydroxy-5-(2-hydroxyacetamido)tetrahydro-2H-pyran-2-carboxylic acid]
1 to 10 | > 10 | > 10 | C#CCOCCOCCO[C@]1(C(=O)O)C[C@H](O)[C@@H](NC(=O)CO)[C@H]([C@H](O)[C@H](O)CNC(=O)C[C@H]2CC[C@H](O)CC2)O1 [Compound 14, (2R,4S,5R,6R)-6-((1R,2R)-1,2-dihydroxy-3-(2-((1r,4R)-4-hydroxycyclohexyl)acetamido)propyl)-4-hydroxy-5-(2-hydroxyacetamido)-2-(2-(2-(prop-2-yn-1-yloxy)ethoxy)ethoxy)tetrahydro-2H-pyran-2-carboxylic acid]
1 to 10 | < 1 | < 1 | O=C(O)CCCCCCO[C@]1(C(=O)O)C[C@H](O)[C@@H](NC(=O)CO)[C@H]([C@H](O)[C@H](O)CNC(=O)Cc2cccc(O)c2)O1 [Compound 143, (2R,4S,5R,6R)-2-((6-carboxyhexyl)oxy)-6-((1R,2R)-1,2-dihydroxy-3-(2-(3-hydroxyphenyl)acetamido)propyl)-4-hydroxy-5-(2-hydroxyacetamido)tetrahydro-2H-pyran-2-carboxylic acid]
1 to 10 | > 10 | < 1 | C#CCOCCOCCO[C@]1(C(=O)O)C[C@H](O)[C@@H](NC(=O)CO)[C@H]([C@H](O)[C@H](O)CNC(=O)c2ccccc2)O1 [Compound 202, (2R,4S,5R,6R)-6-((1R,2R)-3-benzamido-1,2-dihydroxypropyl)-4-hydroxy-5-(2-hydroxyacetamido)-2-(2-(2-(prop-2-yn-1-yloxy)ethoxy)ethoxy)tetrahydro-2H-pyran-2-carboxylic acid]
< 1 | < 1 | < 1 | C#CCNC(=O)c1ccc(CS[C@]2(C(=O)O)C[C@H](O)[C@@H](NC(=O)CO)[C@H]([C@H](O)[C@H](O)CNC(=O)Cc3ccc(Cl)cc3)O2)cc1 [Compound 187, (2S,4S,5R,6R)-6-((1R,2R)-3-(2-(4-chlorophenyl)acetamido)-1,2-dihydroxypropyl)-4-hydroxy-5-(2-hydroxyacetamido)-2-((4-(prop-2-yn-1-ylcarbamoyl)benzyl)thio)tetrahydro-2H-pyran-2-carboxylic acid]
> 10 | 1 to 10 | > 10 | C#CCOCCOCCO[C@]1(C(=O)O)C[C@H](O)[C@@H](NC(=O)CO)[C@H]([C@H](O)[C@H](O)CNC(=O)Cc2ccc(-c3ccccc3)c(O)c2)O1 [Compound 66, (2R,4S,5R,6R)-6-((1R,2R)-1,2-dihydroxy-3-(2-(2-hydroxy-[1,1′-biphenyl]-4-yl)acetamido)propyl)-4-hydroxy-5-(2-hydroxyacetamido)-2-(2-(2-(prop-2-yn-1-yloxy)ethoxy)ethoxy)tetrahydro-2H-pyran-2-carboxylic acid]
< 1 | < 1 | < 1 | C#CCNc1c(NCCCCCCO[C@]2(C(=O)O)C[C@H](O)[C@@H](NC(=O)CO)[C@H]([C@H](O)[C@H](O)CNC(=O)Cc3ccc(-c4ccccc4)cc3)O2)c(=O)c1=O [Compound 221, (2R,4S,5R,6R)-6-((1R,2R)-3-(2-([1,1′-biphenyl]-4-yl)acetamido)-1,2-dihydroxypropyl)-2-((6-((3,4-dioxo-2-(prop-2-yn-1-ylamino)cyclobut-1-en-1-yl)amino)hexyl)oxy)-4-hydroxy-5-(2-hydroxyacetamido)tetrahydro-2H-pyran-2-carboxylic acid]
1 to 10 | < 1 | < 1 | O=C(Cc1ccc(Cl)cc1)NC[C@@H](O)[C@@H](O)[C@@H]1O[C@@](SCc2cccc(C(=O)O)c2)(C(=O)O)C[C@H](O)[C@H]1NC(=O)CO [Compound 116, (2S,4S,5R,6R)-2-((3-carboxybenzyl)thio)-6-((1R,2R)-3-(2-(4-chlorophenyl)acetamido)-1,2-dihydroxypropyl)-4-hydroxy-5-(2-hydroxyacetamido)tetrahydro-2H-pyran-2-carboxylic acid]
1 to 10 | 1 to 10 | 1 to 10 | C#CCOCCCCCCO[C@]1(C(=O)O)C[C@H](O)[C@@H](NCC(N)=O)[C@H]([C@H](O)[C@H](O)CNC(=O)Cc2ccc(Cl)cc2)O1 [Compound 182, (2R,4S,5R,6R)-5-((2-amino-2-oxoethyl)amino)-6-((1R,2R)-3-(2-(4-chlorophenyl)acetamido)-1,2-dihydroxypropyl)-4-hydroxy-2-((6-(prop-2-yn-1-yloxy)hexyl)oxy)tetrahydro-2H-pyran-2-carboxylic acid]
1 to 10 | < 1 | 1 to 10 | C#CCOCCOCCO[C@]1(C(=O)O)C[C@H](O)[C@@H](NC(=O)CO)[C@H]([C@H](O)[C@H](O)CNC(=O)c2cccc(Oc3ccc(O)cc3)c2)O1 [Compound 18, (2R,4S,5R,6R)-6-((1R,2R)-1,2-dihydroxy-3-(3-(4-hydroxyphenoxy)benzamido)propyl)-4-hydroxy-5-(2-hydroxyacetamido)-2-(2-(2-(prop-2-yn-1-yloxy)ethoxy)ethoxy)tetrahydro-2H-pyran-2-carboxylic acid]

SMILES | Kd [1] [µM] | Kd [2] [µM] | Kd (cynomolgus Siglec-2/CD22) [µM]
C#CCC(NC(=O)CCCO[C@]1(C(=O)O)C[C@H](O)[C@@H](NC(=O)CO)[C@H]([C@H](O)[C@H](O)CNC(=O)Cc2ccc(Cl)cc2)O1)C(=O)O (stereo partly drawn) [Compound 102, (2R,4S,5R,6R)-2-(4-((1-carboxybut-3-yn-1-yl)amino)-4-oxobutoxy)-6-((1R,2R)-3-(2-(4-chlorophenyl)acetamido)-1,2-dihydroxypropyl)-4-hydroxy-5-(2-hydroxyacetamido)tetrahydro-2H-pyran-2-carboxylic acid] | 1 to 10 | 1 to 10 | 1 to 10
